Results from PubChem BioAssay AID602156 (GNF / Scripps Winzeler lab, 2011).
“And” between values parts separate entries of the source, which are not always exact repeats. Equal entries are not always repeated. The source made the active and inactive calls. No rule for the calls is given here.

These compounds were tested on P. yoelii liver stage in HepG2-A16-CD81EGFP, imaging (assay: exo-erythrocytic parasite development inhibition – imaging, Malaria Box, P. yoelii, HepG2-A16-CD81EGFP, dose response (AID 602156);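 also: infected cells exposed to compound for 48 hours before fixation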).

SMILES	IC50
Nc1nonc1-n1nnc(C(=O)NN=Cc2ccc(F)c(Br)c2)c1-c1ccc([N+](=O)[O-])cc1	> 10000 nM (inactive)
CCOC(=O)c1c[nH]c2ccc(OC)cc2c1=O	293 nM and 135 nM
CN(C)c1cc[n+](CC(=O)Nc2ccc(Cl)cc2)cc1	584 nM
CCN(CC)CCCN(Cc1cc2cc(OC)c(OC)cc2[nH]c1=O)C(=S)Nc1cccc(Cl)c1	162 nM
C=CCc1c(C)[nH]c2ccc(Br)cc2c1=O	181 nM
CCNC(=O)C1CCN(c2cccc3c2C(=O)N(C2CCCCCCC2)C3=O)CC1	269 nM
O=C(O)c1c[nH]c2cc(N3CCCCCC3)c(F)cc2c1=O	> 10000 nM (inactive)
O=C1c2ccccc2-n2c1nc1ccccc1c2=O	225 nM
CCN(c1ccccc1)S(=O)(=O)c1ccc(F)c(C(=O)Nc2c(C)cccc2C)c1	> 10000 nM (inactive)
COc1ccc2sc(Nc3nc(-c4ccccn4)cs3)nc2c1	159 nM
Oc1c(C(Nc2ccccn2)c2cccc(Cl)c2Cl)ccc2cccnc12 (stereo not given)	402 nM
CCOC(=O)c1c[nH]c2ccc(C(C)C)cc2c1=O	352 nM
Cc1oc2c(c1C(=O)NCCCn1ccnc1)C(=O)c1ccccc1C2=O	119 nM
O=C(c1ccc([N+](=O)[O-])cc1)c1ccc(Cl)c(Cl)c1	1640 nM
Cc1cc(C(=O)Nc2cnn(Cc3ccc(Cl)cc3Cl)c2)no1	335 nM
COc1ccc(C2CC(=O)C3=C(C2)NC(C)=C(C(=O)OC(C)C)C3c2cccc(C)c2)cc1OC (stereo not given)	1840 nM
CCC1CN2CCc3cc(OC)c(OC)cc3C2CC1CC1NCCc2cc(OC)c(OC)cc21 (stereo not given)	80.2 nM
Cc1ncc(CCCCN(C)C)c2c1[nH]c1ccccc12	2770 nM
Fc1ccc2nc(Nc3nc(-c4ccccn4)cs3)sc2c1	43.8 nM
CCCCCC[P+](N(CCC)CCC)(N(CCC)CCC)N(CCC)CCC	49.1 nM
Cn1ncnc2c(=O)n(C)c(=O)nc1-2	103 nM
CCOc1ccc2ncc(S(=O)(=O)c3ccc(OC)cc3)c(N3CCN(C)CC3)c2c1	10.7 nM
COC(=O)c1ccc(C2C3=C(CC(c4ccco4)CC3=O)Nc3ccccc3N2C(=O)c2ccccc2)cc1 (stereo not given)	> 4780 nM (inactive)
COc1ccc2nc(C)cc(Nc3ccc(Cl)c(Cl)c3)c2c1	438 nM
O=C(Nc1ccc(-c2nc3ccc(NC(=O)c4ccc(Br)o4)cc3[nH]2)cc1)c1ccc(Br)o1	812 nM
CCCCOc1ccc(C2C3CCCC=C3C(C#N)=C(N)C2(C#N)C#N)cc1 (stereo not given)	> 10000 nM (inactive)
COC(=O)c1cc(NC(=S)NC(=O)c2c(OC)cccc2OC)cc(C(=O)OC)c1	> 10000 nM (inactive)

SMILES	IC50
CCN(CC)c1ccc(NC(=O)c2cccs2)cc1	396 nM
Oc1cccc2ccc(Nc3ccccn3)nc12	142 nM
Cc1[nH]c2c(C)cccc2c(=O)c1CC=C(Cl)Cl	169 nM
CCC(/C=C1\Sc2ccc(OC)cc2N1CCCS(=O)(=O)O)=C\c1sc2ccc(OC)cc2[n+]1CCCS(=O)(=O)O	11.2 nM
COc1ccc2nc(C)cc(Nc3ccc(Oc4ccc(Cl)c5ccccc45)c(Cl)c3)c2c1	267 nM
c1ccc(Nc2ccnc(Nc3ccccc3)n2)cc1	1480 nM
Cc1ccc(Nc2nc3c(N)nnc(N)c3nc2Nc2ccc(C)cc2)cc1	488 nM
CC(=O)N(C1=C(N2CCOCC2)C(=O)c2ccccc2C1=O)c1ccc(I)cc1	602 nM
O=C1C2=C(Nc3ccccc3SC2c2ccco2)c2ccccc21 (stereo not given)	113 nM
Oc1c(CN2CCN(Cc3ccc4cccnc4c3O)CC2)ccc2cccnc12	96.6 nM
O=C(c1ccc2nc(N3CCCCC3)sc2c1)N1CCN(Cc2ccc3c(c2)OCO3)CC1	> 9220 nM (inactive)
CCCCC(=O)NC(c1cccc([N+](=O)[O-])c1)c1ccc2cccnc2c1O (stereo not given)	449 nM
COc1ccccc1Nc1nc(NCc2ccccc2)c2ccccc2n1	91.3 nM
Fc1ccc(Nc2nc(NCc3ccccc3)c3ccccc3n2)cc1	3790 nM
CCCCCCN(C(=O)c1ccc(C(C)(C)C)cc1)C(CC)c1nc2ccccc2c(=O)n1-c1ccc(F)cc1 (stereo not given)	> 6910 nM (inactive)
CCN1C(=Cc2cc[n+](C)cc2)C=Cc2cc(C)ccc21	170 nM
CC(=O)Nc1ccc(-c2nc(-c3ccc(Oc4ccc(-c5[nH]c(-c6ccc(NC(C)=O)cc6)nc5-c5ccccc5)cc4)cc3)c(-c3ccccc3)[nH]2)cc1	> 3730 nM (inactive)
COC(=O)c1c(-c2c(Cl)cccc2Cl)noc1NC(=O)NN1CCCCC1	647 nM
O=C1CC(c2ccccc2)CC2=C1C(c1ccccc1[N+](=O)[O-])Nc1ccccc1N2 (stereo not given)	> 10000 nM (inactive)
CCC(C)Nc1nc(NC(C)CC)nc(N2CCCCCC2)n1 (stereo not given)	300 nM
CC(c1nc2ccc(Cl)cc2c(=O)n1C)N1CCN(S(=O)(=O)c2cccc3ccccc23)CC1 (stereo not given)	22.3 nM
CCOC(=O)c1ccc(OCC2c3cc(OC)c(OC)cc3CCN2C(=O)c2ccc([N+](=O)[O-])cc2)cc1 (stereo not given)	> 10000 nM (inactive)
c1ccc(CSc2scnc2[P+](c2ccccc2)(c2ccccc2)c2ccccc2)cc1	68.5 nM
COc1cccc(CNC(=O)C2CNCC2c2ccc(C(F)(F)F)cc2)c1 (stereo not given)	857 nM
CCC(C)(C)c1ccc(OCCCC[n+]2cccc(C)c2C)c(C(C)(C)CC)c1	45.5 nM
CC[n+]1c(/C=C/N(C)c2ccccc2)n(-c2ccccc2)c2ccc(-c3nc4ccccc4s3)cc21	14 nM
CCOc1ccc(N(C(=O)C2COc3ccccc3O2)C(C(=O)NC2CCCCC2)c2cn(C)nc2C)cc1 (stereo not given)	> 10000 nM (inactive)

SMILES	IC50
CCCc1nc2ccc(NC(=O)c3ccccc3F)cc2c(=O)n1Cc1ccc(-c2ccccc2)cc1	1730 nM
Cc1ccc(-c2cc3nc4c(c(=O)n3[nH]2)CCCC4)cc1	75.3 nM
CCOC(=O)c1c(NC(C)=O)sc2c1CCN(C(C)C)C2	3010 nM
COc1cccc(-c2cncc(-c3cncc(OC)c3)n2)c1	> 10000 nM (inactive)
O=C(c1cccc([N+](=O)[O-])c1)c1ccc(Cl)c(Cl)c1	3810 nM
OC(CNC1CCCCC1)Cn1c2ccccc2c2ccccc21 (stereo not given)	3920 nM
Cc1ccccc1N=Nc1ccc(NC(=O)c2ccco2)c(C)c1	300 nM
O=C1N(Cc2cc3ccccc3s2)CC2CN(Cc3ccsc3)CCN12 (stereo not given)	25.5 nM
Cc1[nH]c2ccccc2c(=O)c1CC=C(Cl)Cl	130 nM
O=C(c1cccs1)N1CCN(c2ccc([N+](=O)[O-])c(NC3CC3)c2)CC1	692 nM
COc1cccc(NC(=O)c2ccc(NCCCN3CC(C)CC(C)C3)c([N+](=O)[O-])c2)c1 (stereo not given)	437 nM
Cc1cccc(N2C(N)=NC(N)=NC2(C)C)c1	4.25 nM
O=c1c2c([nH]c3ccccc13)CCCC2	500 nM
O=c1c2c(nc3cc(-c4ccc(Br)cc4)[nH]n13)CCCC2	499 nM
CCCCCCOc1ccc(NC(=O)c2cccs2)cc1	139 nM
Fc1ccc(Nc2nc(NCc3ccco3)c3ccccc3n2)cc1	74.9 nM
COc1cc(C(=O)Nc2ccc3nc4n(c(=O)c3c2)CCCCC4)cc(OC)c1OC	> 10000 nM (inactive)
COc1cc(C(=O)NCCc2ccccn2)ccc1OC1CCN(CC(c2ccccc2)c2ccccc2)CC1	1280 nM
COc1ccc(C2CC(=O)C3=C(C2)NC(C)=C(C(=O)OC(C)C)C3c2ccccc2OC)cc1OC (stereo not given)	> 10000 nM (inactive)
CCOC(=O)c1cn(CC)c2cc(N(C)CCc3ccc(OC)c(OC)c3)c(F)cc2c1=O	42.1 nM
Cc1cc(N)c2ccccc2[n+]1CCCCCCCCCC[n+]1c(C)cc(N)c2ccccc21	566 nM
CCN(CC)c1ccc(N=Cc2ccc(Sc3nc4ccccc4s3)o2)cc1	> 10000 nM (inactive)
CCOC(=O)c1c(CSc2ccccc2)oc2cc(CN(C)C)c(O)c(Cl)c12	7200 nM
CCC(=O)NC(c1ccccc1Cl)c1cc(Cl)c2cccnc2c1O (stereo not given)	1010 nM
O=C(C1CC1)N1CCc2cc(Br)cc(S(=O)(=O)N3CCCC3)c21	> 10000 nM (inactive)
O=C1C2=C(Nc3ccccc3SC2c2ccc(OCc3ccccc3)cc2)c2ccccc21 (stereo not given)	58 nM
Cc1cccc(NC(=S)NC2CC3CCCC(C2)N3CCc2ccccc2)c1 (stereo not given)	277 nM

SMILES	IC50
CCn1c(/C=C/C=C2\N(C)c3ccccc3C2(C)C)[n+](Cc2ccccc2)c2ccccc21	6.76 nM
CCCCc1c(CCC)c(=N)c2ccccc2n1C	244 nM
CCCCSc1oc(C)nc1[P+](c1ccccc1)(c1ccccc1)c1ccccc1	82.1 nM
NC(Cc1ccccc1)C(=O)N1CCn2c(nc(-c3ccccc3)c2Nc2ccc3c(c2)OCO3)C1 (stereo not given)	1.85 nM
COc1cc(C(=O)N2N=C(c3c(-c4ccccc4)c4cc(Br)ccc4[nH]c3=O)CC2c2cccc([N+](=O)[O-])c2)cc(OC)c1OC (stereo not given)	435 nM
Cc1cccc(-c2cc3nc(C)c(C)c(=O)n3[nH]2)c1	1100 nM
CCOc1ccc(NC(=O)C(C)Sc2nc3ccccc3[nH]2)cc1 (stereo not given)	> 10000 nM (inactive)
Cc1c(Cl)cccc1N1C(=O)C2C3c4ccccc4C(c4ccccc43)C2C1=O (stereo not given)	> 10000 nM (inactive)
O=[N+]([O-])c1cc(C(F)(F)F)ccc1N1CCCN(C(=S)Nc2ccccc2)CC1	2230 nM
CC(c1nc2ccccc2c(=O)n1C)N1CCN(C(=O)C(C)(C)C)CC1 (stereo not given)	492 nM
CCN(CC)CCN(Cc1cc2ccc(C)cc2[nH]c1=O)C(=S)NC(C)c1ccccc1 (stereo not given)	883 nM
CC(=O)N(C1=C(N(C)C)C(=O)c2ccccc2C1=O)c1ccc(F)cc1	57.3 nM
Cc1nc2ccccc2c(=O)n1-c1ccc([N+](=O)[O-])cc1	> 10000 nM (inactive)
OCCNc1nc(Nc2ccc(F)cc2)nc2ccccc12	136 nM
COc1ccc2nc(-c3ccccc3)cc(NCCN(C)C)c2c1	570 nM
O=c1c2c([nH]c3ccccc13)CCCCCC2	727 nM
CCCC1(CCC)NC(=S)N(c2ccc(C)c(C)c2)N1	> 10000 nM (inactive)
CCCCNC(=O)C1CCC(CN(Cc2c(Cl)cccc2Cl)S(=O)(=O)c2ccc(Br)cc2)CC1 (stereo not given)	124 nM
Clc1cccc(Nc2nc(NCc3ccco3)c3ccccc3n2)c1	383 nM
O=C(O)Cn1cnc2nc3n(c2c1=O)CCC3	> 765 nM (inactive)
O=C(Nc1ccc(-c2nc3ccc(NC(=O)c4cccc([N+](=O)[O-])c4)cc3[nH]2)cc1)c1cccc([N+](=O)[O-])c1	> 944 nM (inactive)
COc1ccc(Nc2nc(NCc3ccccc3)c3ccccc3n2)cc1	305 nM
CCCc1c(C)[nH]c2ccccc2c1=O	279 nM
COc1ccccc1Cc1nc2ccccc2nc1SCC(=O)Nc1cccc(C(F)(F)F)c1	> 10000 nM (inactive)
